Experimental data as given in US20220178900A1, “BIORELEVANT COMPOSITION” (BIORELEVANT.COM LTD., priority 2019, published 2022).

Columns and labels:
Type in all cases: physicochemical
[1] = Dissolution in fasted state gastric media (control experiment); conditions: for drug dose dissolved: after 2 hours of dissolution, fasted state gastric media
Experimental: (§1) Three biorelevant fed state gastric media at pH 6, pH 5 and pH 3 using the composition in Table 5 were produced. The media at these three pHs were characterised by measuring pH, buffer capacity, particle size (Z-average and polydispersity using Nanosizer) and surface tension (Kruss surface tension K6). The media were stable at time zero and physically stable after 24 hours. Similarly, the key physicochemical properties were unchanged after 24 hours. The dissolution of exemestane (4 tablet×25 mg tablets) in the media was carried out using USP 2 Dissolution Apparatus at 75 rpm (n=6 vessels). Samples of the three biorelevant media were taken from the dissolution vessels and filtered through a 0.45 micrometer nylon filter with prefilter at 5 mins, 10 mins, 15 mins, 20 mins, 25 mins, 30 mins, 45 mins, 60 mins, 90 mins and 120 mins and analysed for exemestane content by HPLC. […] Within 30 minutes more than 80% of the drug was dissolved across the three media.
The dissolution of Sturgeron (15 mg cinnarizine immediate release tablets) was tested in a fasted gastric media (control experiment) and compared with fed gastric media at pH 6, pH 5 and pH 3 using the same dissolution set up as described previously. The dissolution profile of this drug product in the fasted gastric media indicates this basic drug cinnarizine dissolves rapidly in the fasted stomach. […]
The dissolution of danazol (100 mg) hard gelatine capsules was carried out in fasted state gastric media (control) and compared with biorelevant fed state gastric media at pH 6, pH 4.5 and pH 3 as described using the set up and method in the Case Study 1. […] Case Study 6—Examining Physicochemical Properties of FEDGAS Dissolution Media Stored for 72 Hrs at Room Temperature with Dissolution of Megesterol Acetate Capsules FEDGAS media at pH 6, pH 4.5 and pH 3 were prepared by adding the appropriate amount of water in a suitable container, adding the corresponding buffer concentrate and adding the appropriate amount of readily water dispersible biorelevant precursor concentrate and mixing with a magnetic stirrer until homogeneous. […]

[2] = Dissolution in biorelevant fed state gastric media (FEDGAS), USP 2 Dissolution Apparatus at 75 rpm, HPLC; conditions: for dissolution in fed state gastric media compared with fasted state gastric media: fed state gastric media across pH 6 to pH 3; for pH dependence of dissolution profiles in fed state gastric media: fed state media pH 6, pH 5, pH 3
Experimental: In the case studies from 1 to 4, FEDGAS media at pH 6, pH 5 and pH 3 were prepared by adding the appropriate amount of purified water in a suitable container, adding the corresponding buffer concentrate and adding the appropriate amount of biorelevant precursor concentrate and mixing with a magnetic stirrer until homogeneous.
as §1

[3] = as above; conditions: within 60 minutes; fed state gastric media at pH 6, pH 4.5 and pH 3
[4] = FEDGAS dissolution media stored for 72 hrs at room temperature; conditions: 160 mg capsules in 900 mL; FEDGAS pH 6, pH 4.5, pH 3; room temperature storage
Experimental: The dissolution of danazol (100 mg) hard gelatine capsules was carried out in fasted state gastric media (control) and compared with biorelevant fed state gastric media at pH 6, pH 4.5 and pH 3 as described using the set up and method in the Case Study 1. Referring to FIG. 6, the dissolution in fasted gastric media is negligible even after 2 hours of dissolution. Less than 0.2% of the drug dose is dissolved even after 2 hours of dissolution. […] Dissolution reaches about 55% of the dosage form within 60 minutes in fed state gastric media at pH 6, pH4.5 and pH 3 respectively. Case Study 6—Examining Physicochemical Properties of FEDGAS Dissolution Media Stored for 72 Hrs at Room Temperature with Dissolution of Megesterol Acetate Capsules FEDGAS media at pH 6, pH 4.5 and pH 3 were prepared by adding the appropriate amount of water in a suitable container, adding the corresponding buffer concentrate and adding the appropriate amount of readily water dispersible biorelevant precursor concentrate and mixing with a magnetic stirrer until homogeneous. The three media were stored at room temperature for up to 72 hours. […] The pH, buffer capacity, surface tension and particle size (Z-average) of the FEDGAS pH 6 and FEDGAS pH 3 were measured at t=0 and at t=72 hours. […]

For `C(=C\c1ccccc1)/CN1CCN(C(c2ccccc2)c2ccccc2)CC1` [cinnarizine], the drug dissolved ([1]; within 30 minutes, fasted gastric media) was about 90%, the “dissolution in fed state gastric media compared with fasted state gastric media” value [2] was “slower drug dissolution in all fed state gastric media” and the “pH dependence of dissolution profiles in fed state gastric media” value [2] was “faster at lower pH”.
In the case of `C#C[C@]1(O)CC[C@H]2[C@@H]3CCC4=Cc5oncc5C[C@]4(C)[C@H]3CC[C@@]21C` [danazol], the drug dose dissolved [1] is reported as “Less than 0.2%”, the “dissolution in fed state gastric media compared with fasted state gastric media” value [2] is reported as “considerably more rapidly” and the “Dissolution, % of the dosage form” value [3] is reported as “about 55%”.
With `C=C1C[C@@H]2[C@H](CC[C@]3(C)C(=O)CC[C@@H]23)[C@@]2(C)C=CC(=O)C=C12` [exemestane] the “pH dependence of dissolution profiles in fed state gastric media” value [2] was “not sensitive to different pHs” and the drug dissolved ([2]; within 30 minutes, across the three fed state media pH 6, pH 5 and pH 3, 4 x 25 mg tablets) was “more than 80%”.
In the case of `Cc1cccc(Nc2ccccc2C(=O)O)c1C` [mefenamic acid], the drug dose dissolved [1] is reported as “Less than 0.1%”, the “dissolution in fed state gastric media compared with fasted state gastric media” value [2] is reported as “considerably more rapidly” and the “Dissolution, % of the dosage form” value ([2]; within 30 minutes, fed state gastric media pH 3) is reported as about 10%. For the same compound, the “Dissolution, % of the dosage form” value ([2]; within 30 minutes, fed state gastric media pH 5) was about 25% and the “Dissolution, % of the dosage form” value ([2]; within 30 minutes, fed state gastric media pH 6) was “about 45%”.
For `CC(=O)O[C@]1(C(C)=O)CC[C@H]2[C@@H]3C=C(C)C4=CC(=O)CC[C@]4(C)[C@H]3CC[C@@]21C` [megesterol acetate], the “dissolution profiles in media stored t=0, 24, 48, 72 hours” value [4] was “identical”.
